Reference: PubChem BioAssay AID2060909 (Molecular Pharmacology Branch, DTP, NCI, 2025)

System: 362531-283-R-J2-PDC complex spheroid viability
Assay: Anticancer human tumor 362531-283-R-J2-PDC patient-derived colon adenocarcinoma cell line growth inhibition [RAS]
Conditions: for IC50: curve of first compound; for viability, T/C: stronger effect = lower value
Method in brief: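 Agents were tested in combination matrices in half-log decrements from a top concentration at or near clinical Cmax (10 microM if undetermined). Targets were multi-cell spheroids of tumour lines plus HUVEC and MSC stromal cells.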

[1] = second compound 0.000949 µM, first compound 0.0316 µM
[2] = second compound 0.000949 µM, first compound 0.1 µM
[3] = second compound 0.000949 µM, first compound 0.316 µM
[4] = second compound 0.000949 µM, first compound 1 µM
[5] = second compound 0.000949 µM, first compound 3.16 µM
[6] = second compound 0.000949 µM, first compound 10 µM
[7] = second compound 0.003 µM, first compound 0.0316 µM
[8] = second compound 0.003 µM, first compound 0.1 µM
[9] = second compound 0.003 µM, first compound 0.316 µM
[10] = second compound 0.003 µM, first compound 1 µM
[11] = second compound 0.003 µM, first compound 3.16 µM
[12] = second compound 0.003 µM, first compound 10 µM
[13] = second compound 0.00949 µM, first compound 0.0316 µM
[14] = second compound 0.00949 µM, first compound 0.1 µM
[15] = second compound 0.00949 µM, first compound 0.316 µM
[16] = second compound 0.00949 µM, first compound 1 µM
[17] = second compound 0.00949 µM, first compound 3.16 µM
[18] = second compound 0.00949 µM, first compound 10 µM
[19] = second compound 0.03 µM, first compound 0.0316 µM
[20] = second compound 0.03 µM, first compound 0.1 µM
[21] = second compound 0.03 µM, first compound 0.316 µM
[22] = second compound 0.03 µM, first compound 1 µM
[23] = second compound 0.03 µM, first compound 3.16 µM
[24] = second compound 0.03 µM, first compound 10 µM
[25] = second compound 0.0949 µM, first compound 0.0316 µM
[26] = second compound 0.0949 µM, first compound 0.1 µM
[27] = second compound 0.0949 µM, first compound 0.316 µM
[28] = second compound 0.0949 µM, first compound 1 µM
[29] = second compound 0.0949 µM, first compound 3.16 µM
[30] = second compound 0.0949 µM, first compound 10 µM
[31] = second compound 0.3 µM, first compound 0.0316 µM
[32] = second compound 0.3 µM, first compound 0.1 µM
[33] = second compound 0.3 µM, first compound 0.316 µM
[34] = second compound 0.3 µM, first compound 1 µM
[35] = second compound 0.3 µM, first compound 3.16 µM
[36] = second compound 0.3 µM, first compound 10 µM
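Note: spheroids exposed to the agents for 7 days before readout.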
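Throughout, for viability, T/C: luminescence viability as percent of DMSO vehicle control wells.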

`CCC(CC)c1cc(NC2CCC(N)C2)n2nccc2n1` (stereo unspecified) + CCn1c(-c2cc(N3CCN(C)CC3)cnc2C(C)OC)c2c3cc(ccc31)-c1csc(n1)CC(NC(=O)C1CC1C)C(=O)N1CCCC(N1)C(=O)OCC(C)(C)C2 gave an IC50 (second compound 0.000949 µM) of 4.55 µM, an IC50 (second compound 0.003 µM) of 4.56 µM and an IC50 (second compound 0.00949 µM) of 4.58 µM. For the same molecule, the IC50 (second compound 0.03 µM) was 4.8 µM, the IC50 (second compound 0.0949 µM) was 4.69 µM and the IC50 (second compound 0.3 µM) was < 0.0316 µM. It also gave a viability, T/C [1] of 94.5%, a viability, T/C [2] of 116% and a viability, T/C [3] of 99.3%. For the same molecule, the viability, T/C [4] was 101%, the viability, T/C [5] was 71.2% and the viability, T/C [6] was 4.02%. For the same molecule, the viability, T/C [7] was 103%, the viability, T/C [8] was 108% and the viability, T/C [9] was 96.6%. It also gave a viability, T/C [10] of 98.4%, a viability, T/C [11] of 71.4% and a viability, T/C [12] of 3.89%. For the same molecule, the viability, T/C [13] was 102%, the viability, T/C [14] was 141% and the viability, T/C [15] was 97.5%. It also gave a viability, T/C [16] of 94.7%, a viability, T/C [17] of 76% and a viability, T/C [18] of 3.54%. The viability, T/C [19] was 101%, the viability, T/C [20] was 103% and the viability, T/C [21] was 89.8%. It also gave a viability, T/C [22] of 99.4%, a viability, T/C [23] of 76.1% and a viability, T/C [24] of 3.95%. The viability, T/C [25] was 90.2%, the viability, T/C [26] was 86.8% and the viability, T/C [27] was 81.2%. The viability, T/C [28] was 85.6%, the viability, T/C [29] was 74.1% and the viability, T/C [30] was 3.61%. The viability, T/C [31] was 47.8%, the viability, T/C [32] was 51.8% and the viability, T/C [33] was 45%. The viability, T/C [34] was 27.9%, the viability, T/C [35] was 4.3% and the viability, T/C [36] was 3.52%.
In the case of `Cc1nc(N2CCC3(CC2)COC(C)C3N)c(CO)nc1Sc1ccnc(N)c1Cl` (stereo unspecified) + CCn1c(-c2cc(N3CCN(C)CC3)cnc2C(C)OC)c2c3cc(ccc31)-c1csc(n1)CC(NC(=O)C1CC1C)C(=O)N1CCCC(N1)C(=O)OCC(C)(C)C2, the IC50 (second compound 0.000949 µM) is reported as > 10 µM, the IC50 (second compound 0.003 µM) is reported as > 10 µM and the IC50 (second compound 0.00949 µM) is reported as 7.34 µM. The IC50 (second compound 0.03 µM) was 1.87 µM, the IC50 (second compound 0.0949 µM) was 0.529 µM and the IC50 (second compound 0.3 µM) was < 0.0316 µM. The viability, T/C [1] was 95.4%, the viability, T/C [2] was 122% and the viability, T/C [3] was 89%. The viability, T/C [4] was 93.7%, the viability, T/C [5] was 86.4% and the viability, T/C [6] was 70.5%. It also gave a viability, T/C [7] of 103%, a viability, T/C [8] of 113% and a viability, T/C [9] of 94.8%. The viability, T/C [10] was 89.6%, the viability, T/C [11] was 92.8% and the viability, T/C [12] was 72.4%. It also gave a viability, T/C [13] of 104%, a viability, T/C [14] of 113% and a viability, T/C [15] of 84.7%. It also gave a viability, T/C [16] of 88.9%, a viability, T/C [17] of 88% and a viability, T/C [18] of 37.1%. For the same molecule, the viability, T/C [19] was 102%, the viability, T/C [20] was 104% and the viability, T/C [21] was 74.3%. For the same molecule, the viability, T/C [22] was 68.9%, the viability, T/C [23] was 36.9% and the viability, T/C [24] was 7.23%. The viability, T/C [25] was 77.7%, the viability, T/C [26] was 77% and the viability, T/C [27] was 65.2%. The viability, T/C [28] was 30.9%, the viability, T/C [29] was 8.1% and the viability, T/C [30] was 4.24%. The viability, T/C [31] was 47.3%, the viability, T/C [32] was 37.8% and the viability, T/C [33] was 18.9%. For the same molecule, the viability, T/C [34] was 6.49%, the viability, T/C [35] was 5.54% and the viability, T/C [36] was 3.65%.
`NC1c2ccccc2OC12CCN(c1cnc3c(N4CCCc5ncccc54)n[nH]c3n1)CC2` (stereo unspecified) + CCn1c(-c2cc(N3CCN(C)CC3)cnc2C(C)OC)c2c3cc(ccc31)-c1csc(n1)CC(NC(=O)C1CC1C)C(=O)N1CCCC(N1)C(=O)OCC(C)(C)C2 was tested, and the IC50 (second compound 0.000949 µM) was 2.04 µM, the IC50 (second compound 0.003 µM) was 0.968 µM and the IC50 (second compound 0.00949 µM) was 0.45 µM. For the same molecule, the IC50 (second compound 0.03 µM) was 0.152 µM, the IC50 (second compound 0.0949 µM) was 0.0401 µM and the IC50 (second compound 0.3 µM) was < 0.0316 µM. It also gave a viability, T/C [1] of 93%, a viability, T/C [2] of 97.3% and a viability, T/C [3] of 88%. The viability, T/C [4] was 75.2%, the viability, T/C [5] was 34.6% and the viability, T/C [6] was 15.8%. For the same molecule, the viability, T/C [7] was 95.2%, the viability, T/C [8] was 90.3% and the viability, T/C [9] was 81.8%. The viability, T/C [10] was 50.8%, the viability, T/C [11] was 8.91% and the viability, T/C [12] was 4.54%. It also gave a viability, T/C [13] of 91.7%, a viability, T/C [14] of 96.4% and a viability, T/C [15] of 67.1%. It also gave a viability, T/C [16] of 11%, a viability, T/C [17] of 4.02% and a viability, T/C [18] of 2.36%. For the same molecule, the viability, T/C [19] was 94.4%, the viability, T/C [20] was 70.9% and the viability, T/C [21] was 13%. It also gave a viability, T/C [22] of 7.15%, a viability, T/C [23] of 5.36% and a viability, T/C [24] of 2.24%. The viability, T/C [25] was 56.5%, the viability, T/C [26] was 25.1% and the viability, T/C [27] was 6.77%. It also gave a viability, T/C [28] of 4.69%, a viability, T/C [29] of 4.6% and a viability, T/C [30] of 2.33%. The viability, T/C [31] was 16.5%, the viability, T/C [32] was 9.81% and the viability, T/C [33] was 5.67%. The viability, T/C [34] was 4.89%, the viability, T/C [35] was 4.53% and the viability, T/C [36] was 2.17%.
